# Test results reported in ChEMBL document CHEMBL1201862, “PubChem BioAssay data set” (2004).
#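 Step 1: Grow cells in 96-well plates. Step 2: Expose to compound for 48 hours at 5 concentrations. Step 3: Interpolate endpoints linearly; if unreached, use highest concentration. GI50 is the concentration that inhibits growth by half.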 Activity calls are given as the source filed them. Rule as the data show it: active = GI50 up to about 1.1 µM and inactive = higher.
# Experiments:
# Assay in all cases: DTP human tumour cell line panel, 48 h
# LOX IMVI = test system: LOX IMVI
# SNB-75 = test system: SNB-75
# MDA-N = test system: MDA-N
# MDA-MB-435 = test system: MDA-MB-435
# SN12C = test system: SN12C
# OVCAR-8 = test system: OVCAR-8
# M14 = test system: M14
# NCI-H522 = test system: NCI-H522
# MOLT-4 = test system: MOLT-4
# UO-31 = test system: UO-31
# SW-620 = test system: SW-620
# SK-OV-3 = test system: SK-OV-3
# HT-29 = test system: HT-29
# KM12 = test system: KM12
# TK-10 = test system: TK-10
# DU-145 = test system: DU-145
# EKVX = test system: EKVX
# K562 = test system: K562
# T47D = test system: T47D
SMILES,GI50 (LOX IMVI),GI50 (SNB-75),GI50 (MDA-N),GI50 (MDA-MB-435),GI50 (SN12C),GI50 (OVCAR-8),GI50 (M14),GI50 (NCI-H522),GI50 (MOLT-4),GI50 (UO-31),GI50 (SW-620),GI50 (SK-OV-3),GI50 (HT-29),GI50 (KM12),GI50 (TK-10),GI50 (DU-145),GI50 (EKVX),GI50 (K562),GI50 (T47D)
C[N+](C)(C)c1nc(N)nc2c1ncn2C1OC(CO)C(O)C1O (stereo not drawn),> 100 µM (inactive),> 100 µM (inactive),> 100 µM (inactive),> 100 µM (inactive),> 100 µM (inactive),> 100 µM (inactive),> 100 µM (inactive),> 100 µM (inactive),> 100 µM (inactive),> 100 µM (inactive),> 100 µM (inactive),> 100 µM (inactive),> 100 µM (inactive),> 100 µM (inactive),> 100 µM (inactive),> 100 µM (inactive),> 100 µM (inactive),> 100 µM (inactive),> 100 µM (inactive)
COc1cccc(-c2cc(O)c3c(C)ccnc3n2)c1,0.0625 µM (active),0.0143 µM (active),< 0.01 µM (active),< 0.01 µM (active),0.0655 µM (active),0.0646 µM (active),0.0239 µM (active),0.0275 µM (active),0.0407 µM (active),0.0703 µM (active),< 0.0177 µM (active),0.0365 µM (active),0.0233 µM (active),0.0257 µM (active),> 100 µM (inactive),0.0471 µM (active),0.225 µM (active),< 0.0113 µM (active),49 µM (inactive)
Nc1c(S(=O)(=O)O)cc(Nc2cccc(S(N)(=O)=O)c2)c2c1C(=O)c1ccccc1C2=O,43.8 µM (inactive),29.6 µM (inactive),20.3 µM (inactive),17.7 µM (inactive),> 100 µM (inactive),> 100 µM (inactive),50.6 µM (inactive),57.8 µM (inactive),> 100 µM (inactive),97.3 µM (inactive),74.5 µM (inactive),27.5 µM (inactive),29.6 µM (inactive),71.6 µM (inactive),> 100 µM (inactive),> 100 µM (inactive),57 µM (inactive),> 100 µM (inactive),> 100 µM (inactive)
O=C(CN1C(=O)c2ccccc2C1=O)NC1(C(=O)O)CCCC1,> 100 µM (inactive),> 100 µM (inactive),> 100 µM (inactive),> 100 µM (inactive),> 100 µM (inactive),> 100 µM (inactive),> 100 µM (inactive),> 100 µM (inactive),> 100 µM (inactive),> 100 µM (inactive),> 100 µM (inactive),> 100 µM (inactive),> 100 µM (inactive),> 100 µM (inactive),> 100 µM (inactive),> 100 µM (inactive),> 100 µM (inactive),> 100 µM (inactive),> 100 µM (inactive)
NCCNC(=S)S,51.8 µM (inactive),> 100 µM (inactive),> 100 µM (inactive),> 100 µM (inactive),68.9 µM (inactive),57.5 µM (inactive),> 100 µM (inactive),3.48 µM (inactive),34.9 µM (inactive),> 100 µM (inactive),59.2 µM (inactive),> 100 µM (inactive),85.9 µM (inactive),> 100 µM (inactive),> 100 µM (inactive),> 100 µM (inactive),> 100 µM (inactive),36.6 µM (inactive),> 100 µM (inactive)
O=C(NNC(=S)Nc1ccc(Cl)cc1)C12CC3CC(CC(C3)C1)C2,2.53 µM (inactive),15.6 µM (inactive),10.2 µM (inactive),7.53 µM (inactive),6.52 µM (inactive),3.52 µM (inactive),7.74 µM (inactive),3.58 µM (inactive),1.98 µM (inactive),1.38 µM (inactive),3.76 µM (inactive),9.79 µM (inactive),3.78 µM (inactive),9.84 µM (inactive),16.5 µM (inactive),11.6 µM (inactive),5.73 µM (inactive),4.24 µM (inactive),4.59 µM (inactive)
Cc1nnc2sc(NN)nn12,> 100 µM (inactive),> 100 µM (inactive),43.5 µM (inactive),> 100 µM (inactive),> 100 µM (inactive),> 100 µM (inactive),> 100 µM (inactive),> 100 µM (inactive),17.5 µM (inactive),> 100 µM (inactive),> 100 µM (inactive),> 100 µM (inactive),> 100 µM (inactive),> 100 µM (inactive),> 100 µM (inactive),> 100 µM (inactive),> 100 µM (inactive),> 100 µM (inactive),> 100 µM (inactive)
